Experimental data reported in patent publication US6500823B1, “Unsaturated hydroximic acid derivatives as per abstract inhibitors” (N-Gene Research Laboratories, Inc., priority 1998, dated 2002).
Structures can show the parent of a compound that is named as a salt.

What was measured:
[1] = target: Moloney murine leukemia virus reverse transcriptase (Moloney murine leukemia virus, UniProt P03355); assay: Reverse transcriptase inhibition, (3H)dTTP incorporation; type: biochemical; details: for inhibition at 0.5 µg/mL: concentration 0.5 μg/ml; for inhibition at 1 µg/mL: concentration 1.0 μg/ml; for reverse transcriptase inhibiting effect compared with Nevirapin and AZT, in words: dose dependent, lower than AZT
Procedure: The compounds may be sorted into group of the non-nucleoside type reverse transcriptase inhibitors. Tests were performed on Moloney murine leukemia virus reverse transcriptase that is considered as a good model of the HIV reverse transcriptase enzyme. The experimental assembly was the following.
The assay measures the incorporation of (3H)dTTP into cDNA using poly(dA) template and oligo(dT)12-18 primer. The reaction was carried out in 20 μl volume.
The reaction was started by addition of 5U reverse transcriptase
The reaction mixture was incubated for 40 min at 37° C. Then 15 μl of the reaction mixture was loaded on Whatman DE81 filter discs and filters were washed sequentially with 5% disodium hidrogen phosphate buffer, with water and with 96% (v/v) ethanol. After drying, the filters were placed into scintillation cocktail (OptiPhase, HiSafe, Wallac) and the radioactivity was measured in a Packard Tri-Carb 2200 scintillation counter.
Two compounds with known inhibitory activity were used in the experiments as positive control. AZT is a nucleoside analog while the compound Nevirapin is a non-nucleoside type inhibitor. Nevirapine binds to the so called benzodiazepine binding site of the enzyme. The applied concentrations of the test compounds were in the 0.2-2 μg/ml concentration range.

[2] = tested on: mouse HSP-70 gene promoter in mouse fibroblast L929 cells; assay: HSP-70 promoter-luciferase reporter gene assay; type: cell-based; details: Control = 100; 10 μl of 10^-2 M solution to 1 ml culture, 30 min, 1 hour regeneration
Description: The activity of HSP-70 was studied by reporter gene assay forming a DNA hybrid. To the promoter sequence of HSP-70 encoding the heat shock protein was fused a gene of a protein that can be detected by a well-measurable enzyme activity. Biotechnological processes were used. As reporter gene luciferase enzyme was employed, the activity of which can be well determined by luminescence measurement. If the promoter of the gene of the luciferase enzyme is substituted by the promoter of the HSP-70 gene, then the change in the activity of the luciferase enzyme i.e. the change of the frequency of the transcription from the gene correlates with the frequency of the transcription of the HSP-70 gene that proceeds in the given circumstances. In this way, if a substance or process influences the expression of the HJSP-70 gene, the effect can be studied through the measurement of the luciferase enzyme activity. The effect of the substances to be tested on the HSP-70 expression was studied in such an experimental system.
A double-stranded DNA circular molecule i.e. a plasmid containing the HSP-70 reporter gene was constructed to perform the measurements. An almost 600 bp long sequence of the mouse HSP-70 gene promoter (5′ direction from the start site of the gene) was fused to the coding sequence of the luciferase gene originated from Photymus pyralis. The applied promoter sequence contained several protein binding sites facilitating the expression of the HSP-70 gene. The HSP promoter-luciferase heterologous gene construct was built in a pBR based plasmid vector that can be selected for neomycin. This HSP-70-luciferase plasmid was transfected into mouse fibroblast L929 cells. The assay was performed as follows.
The HSP-70-luc plasmid containing L929 cells are grown in DMEM (Dulbecco's Modified Eagle's Medium) medium supplemented with 5% FCS (Fetal Calf Serum). 10^4 cells are plated in the wells of a 24-well Costar cell culture plate in 1 ml of culture medium. Test substances are dissolved in PBS (Phosphate Buffered Saline) in 10^−2 M concentration. After attachment of the cells (3-4 hours after plating) 10 μl of the solution are given to the cultures and cells are incubated for 30 min. at 37° C. in a CO2 thermostat. Culture medium is then changed for fresh one (without test substance) and cells are allowed to regenerate for 1 hour at 37° C., then once washed with PBS. After removal of PBS 40 μl of 1× lysis buffer are added to the cells, and the samples are kept on ice for 30 minutes. Then the samples are transferred into Eppendorf vials and centrifuged at 14000 rpm for 20 min at 4° C. 5 μl of the supernatant is added to 25 μl of luciferase assay buffer and the luminescence of the samples is measured for 25 seconds in a luminometer.

[3] = tested on: carnitine-palmitoyl transferase (CPTI); assay: Determination of CPTI inhibition; type: biochemical; details: None = 100; sub-millimolar concentration range
[4] = target: T1, poly-ADP-ribose polymerase from rat liver (Rattus norvegicus, UniProt P27008); assay: In vitro PARP inhibition on isolated enzyme; type: biochemical; details: isolated rat liver enzyme; ± SEM from four parallel measurements; read-out: PARP I0.5 mg/l (converted)
T1 construct: We have isolated the poly-ADP-ribose polymerase from rat liver; from tissue; host or cells: rat liver
Procedure: We have isolated the poly-ADP-ribose polymerase from rat liver according to the article Shah.G. M.,Anal Biochem, 227, 1-13 (1995).
We have determined the PARP activation in 130 μl of reaction mixture, which consists of: 100 mM Tris-HCl puffer, pH 8.0, 10 mM MgCl2, 10% glycerol, 1.5 mM DTT, 100 μg of (32P), or (3H), NAD+, 10 μg of histone. We have stopped the reaction after 10 minutes with 8% perchloric acid and seperated the protein through centrifugation (10 minutes, 10.000×g). We have washed the precipitate with 8% perchloric acid, and we measured the radioactivity connected to the protein with scintillation counter.

male SPRD rats = assay: Reperfusion induced arrhythmia after LAD occlusion, survival rate; type: in vivo, rat; details: for responders at 1 mg/kg / responders at 5 mg/kg: Rattus norvegicus, iv, read-out: % SURV; for responders at 5 mg/kg: control 15.38; for effect on survival of reperfusion arrhythmia, in words: compared with Example 2 (100% survival)
Procedure: Experiments were carried out in male SPRD rats (acceptable body weight range: 300-350 g). The animals were anesthetized with sodium pentobarbital (Nembutal®: 60 mg/kg intraperitoneally) and remained breathing spontaneously. The animals were ventilated with respirator (MTA Kutesz) by using trachea cannule which was inserted after tracheotomy. The standard lead of the ECG II is monitored. Right femoral artery was catheterized and connected to a pressure transducer (BPR-01, Experimetria, Hungary), a preamplifier and pulsotachometer (HG-M, Experimetria, Hungary) for arterial blood pressure and heart rate measurement, respectively. The external jugular vein was cannulated for drug administration. After thoracotomy a silk (braided, coated 4-0) was placed under the left anterior coronary (LAD) artery. After a few minutes' stabilization period, a 5 min occlusion of LAD artery was applied, followed by a 10 min reperfusion period. The survival rate was evaluated.

HepG2 cells = assay: LDH enzyme activity in hypoxia exposed HepG2 cells; type: cell-based; details: Homo sapiens, 30 μg/ml, hypoxia 1% O2 24 hours, Hypoxic control = 100, read-out: Relative LDH content, %
Procedure: HepG2 cell were cultured in DMEM medium supplemented with 10% FCS in 5% CO2 containing air at 37° C. 10^5 cells were plated in the wells of Costar 24-well culture plates in 1 ml medium. On the following day, cells were treated with the test compounds in a concentration of 30 μg/ml, then cells were exposed to hypoxia treatment (1% O2, 5% CO2 in nitrogen gas) for 24 hours. A part of the control cultures were treated with water used as the solvent, and another part of them was not exposed to hypoxia. At the end of the hypoxic treatment, medium was removed and cells were washed twice with cold PBS. Cells lysates were prepared in 0.05% Triton X-100 containing phosphate buffer (0.05 M) and after centrifugation (2 min. […]) the LDH activity of the supernatant was determined on the basis of NADH consumption in the presence of sodium piruvate substrate.
The LDH activity of the cells treated with the test compounds and compared to the activity of the control exposed to hypoxia is shown in Table 6.

CD-1 female mice = assay: Prevention of streptozotocin (SZ)-induced type I diabetes mellitus on mice, blood glucose; type: in vivo, mouse
Procedure: The experiments were carried out on CD-1 female mice weighing 17-19 g (Charles River, Hungary). The animals were divided into three groups. Each group consisted of 10 animals. The first group received 160 mg/kg of streptozotocin, i.p. (Sigma), the second group received 160 mg/kg of streptozotocin, and 200 mg/kg of the compound of Example 2 p.o., the third group served as the control. The blood glucose concentration was measured on the third day. The animals were killed, serum samples were taken for insulin determination, and pancreases were removed for histological studies. The blood glucose concentrations can be seen in Table 3.

T1 sequence (P27008 whole entry): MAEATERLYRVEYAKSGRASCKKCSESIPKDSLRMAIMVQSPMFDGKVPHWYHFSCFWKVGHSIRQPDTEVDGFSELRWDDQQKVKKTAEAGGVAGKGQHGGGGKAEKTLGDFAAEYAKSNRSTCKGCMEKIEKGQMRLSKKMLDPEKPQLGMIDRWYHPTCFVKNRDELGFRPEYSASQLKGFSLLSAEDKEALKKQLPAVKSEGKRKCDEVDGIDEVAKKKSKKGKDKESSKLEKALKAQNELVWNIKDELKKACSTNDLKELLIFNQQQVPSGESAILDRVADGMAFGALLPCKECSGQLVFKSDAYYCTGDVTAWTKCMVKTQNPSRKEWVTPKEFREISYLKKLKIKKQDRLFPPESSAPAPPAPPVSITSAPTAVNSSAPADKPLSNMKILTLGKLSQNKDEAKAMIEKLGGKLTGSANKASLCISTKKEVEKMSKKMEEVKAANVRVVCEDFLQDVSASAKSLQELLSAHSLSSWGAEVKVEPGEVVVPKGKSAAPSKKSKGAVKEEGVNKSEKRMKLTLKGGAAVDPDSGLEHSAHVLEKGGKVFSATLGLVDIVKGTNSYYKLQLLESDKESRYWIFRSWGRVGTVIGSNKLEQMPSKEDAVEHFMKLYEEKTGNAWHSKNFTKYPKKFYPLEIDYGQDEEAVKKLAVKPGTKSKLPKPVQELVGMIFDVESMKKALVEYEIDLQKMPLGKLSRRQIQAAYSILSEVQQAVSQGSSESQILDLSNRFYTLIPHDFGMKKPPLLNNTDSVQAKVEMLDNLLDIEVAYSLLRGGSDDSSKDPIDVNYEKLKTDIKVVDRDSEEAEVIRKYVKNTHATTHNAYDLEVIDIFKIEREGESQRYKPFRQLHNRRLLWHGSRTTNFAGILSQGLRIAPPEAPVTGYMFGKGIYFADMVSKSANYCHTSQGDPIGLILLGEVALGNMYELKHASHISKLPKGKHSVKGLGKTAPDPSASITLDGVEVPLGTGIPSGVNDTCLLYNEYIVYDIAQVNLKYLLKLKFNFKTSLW

Structure (SMILES) | inhibition at 0.2 µg/mL ([1]; concentration 0.2 μg/ml, read-out: Enzyme inhibition, %) | inhibition at 0.5 µg/mL ([1]; read-out: Enzyme inhibition, %) | inhibition at 1 µg/mL ([1]; read-out: Enzyme inhibition, %) | Activity (HSP-70 promoter luciferase) [2] | CPTI test in % [3] | IC50 [4] | responders at 1 mg/kg (male SPRD rats) | responders at 5 mg/kg (male SPRD rats) | effect on survival of reperfusion arrhythmia, in words (male SPRD rats) | activity at 30 µg/mL (HepG2 cells) | GLUCOSE (mean ± s.d.) (CD-1 female mice; 160 mg/kg streptozotocin i.p. + 200 mg/kg compound p.o., blood, third day, control 4.78 ± 2.13) | blood glucose concentration enhanced by streptozotocin, in words (CD-1 female mice; 200 mg/kg p.o.) | inhibition at 2 µg/mL ([1]; concentration 2 μg/ml, read-out: Enzyme inhibition, %) | reverse transcriptase inhibiting effect compared with Nevirapin and AZT, in words [1]
NC(C=Cc1ccccc1)=NOCCCN1CCCCC1 [Example 1, O-(3-Piperidino-propyl)-cinnamic Acid Amidoxime Dihydrochloride] | 6% | 29% | 44% | 107 | 60.1 ± 2.1% | 13.9 µM | 70% | 46% | similarly outstanding effect | – | – | – | – | –
COc1ccc(C=CC(N)=NOCCCN2CCCCC2)cc1OC [Example 2, O-(3-Piperidino-propyl)-3,4-Dimethoxycinnamic Acid Amidoxime Hydrochloride] | – | – | – | – | – | 15 µM | 41.7% | 100% | – | 118% | 8.16 ± 0.65 | remarkably reduces the blood glucose concentration | – | –
NC(C=Cc1cccnc1)=NOCCCN1CCCCC1 [Example 3, O-(3-Piperidino-propyl)-3-(3-Pyridyl)acrylic Acid Amidoxime Hydrochloride] | – | 7% | 45% | 207 | 68.8 ± 3.2% | 8.32 µM | – | 40% | – | – | – | – | 70% | higher than that of Nevirapin
NC(C=Cc1ccccc1)=NOCC(O)CN1CCCCC1 (stereo not drawn) [Example 4, O-(3-Piperidino-2-hydroxy-propyl)-cinnamic Acid Amidoxime Dihydrochloride] | – | – | – | 250 | – | 27 µM | 16.7% | 81.8% | similarly outstanding effect | 118% | – | – | – | higher than that of Nevirapin
